Measured values reported in article PMC6651341, “EDB-FN Targeted Peptide–Drug Conjugates for Use against Prostate Cancer” (International Journal of Molecular Sciences, 2019).
“And” between values parts separate entries of the source, which are not always exact repeats. Equal values may be shown once. Where a SMILES comes first, the peptide text is derived from it. Bridges are numbered along the chain shown (N, C = ends). [ ]: non-standard residue; d: D form. The star is where a group is joined. X1 = CC(=O)O[C@@]12CO[C@@H]1C[C@H](O)[C@@]1(C)C(=O)[C@H](O)C3=C(C)[C@@H](OC(=O)[C@H](OC(=O)CCNC(=O)C4CCC(CN5C(=O)CC(*)C5=O)CC4)[C@@H](NC(=O)OC(C)(C)C)c4ccccc4)C[C@@](O)([C@@H](OC(=O)c4ccccc4)[C@H]21)C3(C)C; Doxorubicin(Traut) = COc1cccc2c1C(=O)c1c(O)c3c(c(O)c1C2=O)C[C@@](O)(C(=O)CO)C[C@@H]3O[C@H]1C[C@H](NC(=N)CCCS*)[C@H](O)[C@H](C)O1; Ahx = NCCCCCC(=O)O

Assays:
[1] = test system: RWPE-1, PC3, LNCap, Du-145 cell lines; assay: MTS cell viability, range over four cell lines; format: cell-based, human; details: 5 µM, 72 h incubation
Description: (§1) Human epithelial prostate cell line (RWPE-1, ATCC No. CRL-11610), human prostate cancer cell line (Human prostate carcinoma DU-145, ATCC No. HTB-81), human adenocarcinoma PC3, ATCC No. CRL-1435), androgen-sensitive human prostate adenocarcinoma cells (LNCaP, ATCC No. CRL-1740), and castration-resistant LNCaP-derived C4-2 (ATCC No. CRL-1595) were purchased from American Type Culture Collection (ATCC), Manassas, VA, USA. All the media, serum, and antibiotics were bought from American Type Culture Collection (ATCC) (Manassas, VA, USA) and Sigma life-science (St. Louis, MO, USA). Keratinocytes SFM (1×) with EGF + BPE was bought from Gibco life technologies (Thermo Fisher Scientific), Gaithersburg, MD, USA. CellTiter 96 was bought from Promega, Madison, WI, USA. Dithiothreitol (DTT) was bought from Thermo Fisher scientific, Carlsbad, CA, USA, and TGF-β was bought from Abcam, Boston, MA, USA.
(§2) Cell-proliferation assay using MTS reagent was conducted against five cell lines (RWPE-1, PC3, DU-145, LNCaP, and, C4-2). Cells were seeded into 96-well plates (5 × 10^3 cells for all the cells) and incubated with 100 µL of complete medium (RPMI-1640 for RWPE-1, DU-145, LNCaP, and C4-2; DMEM for PC3) overnight at 37 °C with 5% CO2. Various concentrations (0, 0.06, 0.6, 6, 60, 600 μM) of the peptide solution (20 μL) were added to cells to yield the final concentrations of peptide (0, 0.01, 0.1, 1, 10, 100 μM). The cells were kept in an incubator (37 °C, 5% CO2) for 24, 48, or 72 h accordingly for different treatment time responses. […] The absorbance was obtained at 490 nm using SpectraMax M2 microplate reader to detect the formazan product. […] The percentage of cell viability was calculated by [(OD value of cells treated with the test mixture of compounds) − (OD value of culture medium)] / [(OD value of control cells) − (OD value of culture medium)] × 100%. […] Cell viability was determined by measuring the absorbance at 490 nm using SpectraMax M2 microplate spectrophotometer, as mentioned above.

[2] = test system: C4-2 cells with TGF-β treatment (EDB-FN overexpression); assay: MTS cell viability of C4-2 cells treated with TGF-β to overexpress EDB-FN; format: cell-based, human; details: C4-2, TGF-β 10 ng/mL for 3 days; for decrease in cell viability in TGF-β treated cells as compared to untreated cells: after 72 h
Procedure: Cell-proliferation assay using MTS reagent was conducted against five cell lines (RWPE-1, PC3, DU-145, LNCaP, and, C4-2). Cells were seeded into 96-well plates (5 × 10^3 cells for all the cells) and incubated with 100 µL of complete medium (RPMI-1640 for RWPE-1, DU-145, LNCaP, and C4-2; DMEM for PC3) overnight at 37 °C with 5% CO2. Various concentrations (0, 0.06, 0.6, 6, 60, 600 μM) of the peptide solution (20 μL) were added to cells to yield the final concentrations of peptide (0, 0.01, 0.1, 1, 10, 100 μM). The cells were kept in an incubator (37 °C, 5% CO2) for 24, 48, or 72 h accordingly for different treatment time responses. Then, a CellTiter 96 aqueous solution (20 μL) was added to each well and incubated for 4 h under the same condition. The absorbance was obtained at 490 nm using SpectraMax M2 microplate reader to detect the formazan product. Wells containing cells in the absence of any peptide were used as a control. The percentage of cell viability was calculated by [(OD value of cells treated with the test mixture of compounds) − (OD value of culture medium)] / [(OD value of control cells) − (OD value of culture medium)] × 100%. […] Cell viability was determined by measuring the absorbance at 490 nm using SpectraMax M2 microplate spectrophotometer, as mentioned above.
To compare the cytotoxicity of compounds using treatment of TGF-β, the cells were culture, and 8000 cells (RPWE-1, PC3, DU-145, LNCap, and C4-2) were added in 120 μL per well with TGF-β treatment. Cells were exposed to TGF-β at 10 ng/mL for 3 days. Then cells were seeded in the corresponding medium (DMEM containing 10% FBS and 1% penicillin–streptomycin for DU-145, LNCaP, and PC3; keratinocyte containing 0.1% FBS without antibiotics for RWPE-1), 24 h prior to the experiment. Then, MTS assay was followed up, as mentioned in 3.5.1.

[3] = test system: PC3; assay: MTS cell viability assay, PC3; format: cell-based, human; details: PC3, 2 h incubation, 0.01-100 µM in 5% DMSO
Description: as §1, §2

[4] = Stability under redox conditions with dithiothreitol (DTT); format: physicochemical; details: PBS pH 7.4, 12 equiv DTT (0.12 mM DTT, 0.010 mM peptide), analytical HPLC 214 nm, % remaining from AUC
Procedure: (§3) The stability of peptide–drug conjugate 13 was evaluated in the phosphate buffered saline (PBS). The pH of PBS was adjusted to 6.8, 7.0, 7.4 using HCl and NaOH as needed. In brief, 250 µL of 1 × PBS was mixed with 45 µL of 0.25 mM Dox-peptide conjugate 13. The mixture was incubated at 37 °C in a water bath covered with aluminum foil. An aliquot (40 µL) was removed at different time intervals, such as 4, 24, and 84 h and analyzed using analytical RP-HPLC at 490 nm. The percentage of the remained peptide was calculated using the area under the curve (AUC) by integrating the chromatogram in analytical HPLC. For evaluation of stability in DTT, a solution of DTT (0.120 mM) was prepared using PBS (pH 7.4). A solution of compounds (1, 8, and 13 at 1 mM) was prepared in PBS (pH = 7.4). A volume of 45 µL of the peptide was added to 2.250 mL of PBS in a UV-blocking glass vial. The glass vials were put under nitrogen and stirred using a small magnetic bead. A volume of DTT ([…], 12 equiv) was added to the solution, which was incubated with each peptide sample to obtain a working concentration of 0.12 mM DTT and 0.010 mM peptide. Aliquots of 200 µL were collected at different time intervals and analyzed using analytical HPLC vials (0 min was used as controls without DTT) after quenching the DTT with 10 µL of H2O (pH = 2). The aliquots were run on analytical HPLC with detection at 214 nm.

[5] = Stability in PBS at different pH; format: physicochemical; details: pH values ranging from 6.5 to 7.4 (method: 6.8, 7.0, 7.4), 37 °C, aliquots at 4, 24, 84 h, analytical RP-HPLC 490 nm, % remaining from AUC
Procedure: as §3

[6] = Stability in 25% human serum; format: in vitro ADME; details: 25% human serum in RPMI-1640, 37 °C, conjugate 125 µM, aliquots 2-120 min, methanol precipitation, analytical HPLC, trendline R^2 0.978, each point average of three readings
Procedure: The stability was performed using 25% human serum. 325 µL of RPMI-1640 media was incubated with 125 µL of human serum at 37 °C in a water bath. Then 50 µL of 125 µM of conjugate 13 was added to the RPMI and serum. The control experiment was performed without conjugate using an aqueous 5% DMSO. Several aliquots (55 µL) were removed at 2, 5, 10, 15, 30, 60, 90, and 120 min. The aliquots were added to 120 µL of cold methanol to precipitate the serum proteins with vigorous mixing using vortex and kept at ice for 10 min. Then, the samples were centrifuged at 17× g (13,300 rpm) for 10 min to get a pellet of the insoluble peptide. The supernatant was collected and analyzed on analytical HPLC, as mentioned before.

[7] = target: T1, Human cathepsin B (Homo sapiens, UniProt P07858); assay: Hydrolysis with cathepsin B enzyme; format: in vitro ADME; details: activated human cathepsin B, 50 mM acetate buffer pH 5.0 with 1 mM EDTA, 8 µL of 1 mM conjugate per 200 µL, HPLC 214/490 nm and MALDI-TOF
T1 construct: purchased Athens Research Lot # CB2016-02 (a lot number; no catalogue number given)
Procedure: Human cathepsin B (CTSB, Lot # CB2016-02 from Athens Research, Athens, GA, USA) was used to hydrolyze the cathepsin linker GFLG in conjugated peptide 13. A stock solution of cathepsin B enzyme (0.434 µg/µL) was prepared using 50 mM acetate (pH 5.0) buffer with 1 mM EDTA. The activation buffer was separately prepared using 30 mM DTT and 15 mM EDTA in H2O. An aliquot of 2.25 µL of cathepsin B stock was activated with 5 µL of activation buffer for 15 min at room temperature then diluted with 1.185 mL of acetate buffer and aliquoted into different tubes with 200 µL each. Further 8 µL of 1 mM of conjugated peptide 13 was added to aliquots and incubated for various time intervals. Then, the reaction was quenched by boiling to denature cathepsin B for 10 min. A 400 µL of cold methanol was added to precipitate the proteins followed by centrifugation of sample 17× g (13,300 rpm) for 10 min. A supernatant (500 µL) was collected, evaporated, and reconstituted with 300 µL of HPLC solvent A (H2O with 0.1% TFA). The eluent fraction from HPLC was further collected and analyzed using MALDI-TOF mass spectrometry to confirm the hydrolysis of the conjugate.

[8] = test system: C4-2; assay: MTS cell viability assay, C4-2 without TGF-β; format: cell-based, human; details: C4-2 without TGF-β, 24–72 h
Description: as §1, §2

SMILES | cell proliferation (cell viability), range over all four cell lines [1] | decrease in cell viability in TGF-β treated cells as compared to untreated cells [2] [%] | toxicity at or below 10 µM [3] | cytotoxicity compared to drug alone [8] | further results
CC(=O)O[C@@]12CO[C@@H]1C[C@H](O)[C@@]1(C)C(=O)[C@H](O)C3=C(C)[C@@H](OC(=O)[C@H](O)[C@@H](NC(=O)OC(C)(C)C)c4ccccc4)C[C@@](O)([C@@H](OC(=O)c4ccccc4)[C@H]21)C3(C)C [Doce, docetaxel, reference compound] | 54–61% | 16 |  |  | 
COc1cccc2c1C(=O)c1c(O)c3c(c(O)c1C2=O)C[C@@](O)(C(=O)CO)C[C@@H]3O[C@H]1C[C@H](N)[C@H](O)[C@H](C)O1 [Dox, doxorubicin, reference compound] | 20–34% |  | no significant toxicity |  | effect of TGF-β treatment on cytotoxicity compared to TGF-β untreated cells [2]: no observed effect
CC(C)[C@@H]1NC(=O)[C@H]([C@@H](C)O)NC(=O)[C@@H](N)CCCCNC(=O)CC[C@@H](C(N)=O)NC(=O)[C@H](CC(=O)O)NC(=O)[C@H](C)NC(=O)[C@H](CO)NC(=O)[C@H]([C@@H](C)O)NC(=O)[C@H](CCCNC(=N)N)NC1=O [compound 8] (H-KTVRTSADE-NH2; lactam 1-9) |  |  |  |  | half-life / stability under redox conditions (DTT) [4]: > 8 h and 8 h
COc1cccc2c1C(=O)c1c(O)c3c(c(O)c1C2=O)C[C@@](O)(C(=O)CO)C[C@@H]3O[C@H]1C[C@H](NC(=N)CCCSSC[C@H](N)C(=O)NCC(=O)N[C@@H](Cc2ccccc2)C(=O)N[C@@H](CC(C)C)C(=O)NCC(=O)NCCCCCC(=O)N[C@H]2CCCCNC(=O)CC[C@@H](C(N)=O)NC(=O)[C@H](CC(=O)O)NC(=O)[C@H](C)NC(=O)[C@H](CO)NC(=O)[C@H]([C@@H](C)O)NC(=O)[C@H](CCCNC(=N)N)NC(=O)[C@H](C(C)C)NC(=O)[C@H]([C@@H](C)O)NC2=O)[C@H](O)[C@H](C)O1 [compound 13] (H-C(Doxorubicin(Traut))GFLG[Ahx]KTVRTSADE-NH2; lactam 7-15) | 25–35% | 17 | no significant toxicity | less cytotoxic as compared to drug alone | half-life in PBS [5]: ~ 10 h; half-life at 12.5 µM [6]: ~11.8 min; time within which cathepsin B cleaves the GFLG linker / releases drug [7]: ≤ 5 min
CC(=O)O[C@@]12CO[C@@H]1C[C@H](O)[C@@]1(C)C(=O)[C@H](O)C3=C(C)[C@@H](OC(=O)[C@H](OC(=O)CCNC(=O)C4CCC(CN5C(=O)CC(SC[C@H](N)C(=O)NCC(=O)N[C@@H](Cc6ccccc6)C(=O)N[C@@H](CC(C)C)C(=O)NCC(=O)NCCCCCC(=O)N[C@H]6CCCCNC(=O)CC[C@@H](C(N)=O)NC(=O)[C@H](CC(=O)O)NC(=O)[C@H](C)NC(=O)[C@H](CO)NC(=O)[C@H]([C@@H](C)O)NC(=O)[C@H](CCCNC(=N)N)NC(=O)[C@H](C(C)C)NC(=O)[C@H]([C@@H](C)O)NC6=O)C5=O)CC4)[C@@H](NC(=O)OC(C)(C)C)c4ccccc4)C[C@@](O)([C@@H](OC(=O)c4ccccc4)[C@H]21)C3(C)C (stereo partly drawn) [compound 14] (H-C(X1)GFLG[Ahx]KTVRTSADE-NH2; lactam 7-15) |  | 10 |  | less cytotoxic as compared to drug alone | 
